Experimental data as given in publication doi:10.1101/2023.09.25.559386v1 (biorxiv, 2023).

Assays:
D1R [1] = target: T1, D1R (Homo sapiens, UniProt P21728); test: radioligand competition binding, cell homogenates
D1R [2] = target: T1, D1R; test: BRET Gs heterotrimer dissociation; assay type: cell-based

T1 sequence (P21728 whole entry): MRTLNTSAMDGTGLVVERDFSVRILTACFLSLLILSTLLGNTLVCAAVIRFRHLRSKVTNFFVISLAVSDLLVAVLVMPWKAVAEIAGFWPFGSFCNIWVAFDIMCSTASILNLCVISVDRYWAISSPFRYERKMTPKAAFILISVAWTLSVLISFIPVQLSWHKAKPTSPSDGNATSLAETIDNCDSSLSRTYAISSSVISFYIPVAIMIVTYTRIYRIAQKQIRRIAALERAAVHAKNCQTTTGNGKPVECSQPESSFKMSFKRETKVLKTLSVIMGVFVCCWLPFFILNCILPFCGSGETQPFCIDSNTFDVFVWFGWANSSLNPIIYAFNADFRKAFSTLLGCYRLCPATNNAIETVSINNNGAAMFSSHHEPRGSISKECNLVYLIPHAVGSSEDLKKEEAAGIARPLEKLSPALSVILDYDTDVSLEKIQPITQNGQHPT

Ki (D1R [1]) [nM] | pKi (D1R [1]; […] [3H]SCH-23390, […] min, room temperature) | Kb (D1R [2]) [nM] | SMILES
9.55 | – | – | CN1CCc2cc(Cl)c(O)cc2C(c2ccc(NS(=O)(=O)CCCCC(=O)NCc3cn(CCOCCOCCNC(=O)c4ccc(-c5c6ccc(N(C)C)cc6[o+]c6cc(N(C)C)ccc56)c(C(=O)[O-])c4)nn3)cc2)C1 (racemic) [compound 27, 2-(3,6-Bis(dimethylamino)xanthylium-9-yl)-5-((2-(2-(2-(4-((5-(N-(4-(7-chloro-8-hydroxy-3-methyl-2,3,4,5-tetrahydro-1H-benzo[d]azepin-1-yl)phenyl)sulfamoyl)pentanamido)methyl)-1H-1,2,3-triazol-1-yl)ethoxy)ethoxy)ethyl)carbamoyl)benzoate]
398 | – | – | CN1CCc2cc(Cl)c(O)cc2C(c2ccc(NS(=O)(=O)CCCNC(=O)c3ccc(-c4c5ccc(N(C)C)cc5[o+]c5cc(N(C)C)ccc45)c(C(=O)[O-])c3)cc2)C1 (racemic) [compound 23, 5-((3-(N-(4-(7-Chloro-8-hydroxy-3-methyl-2,3,4,5-tetrahydro-1H-benzo[d]azepin-1-yl)phenyl)sulfamoyl)propyl)carbamoyl)-2-(6-(dimethylamino)-3-(dimethyliminio)-3H-xanthen-9-yl)benzoate]
288 | – | – | COCC[N+]1=C(/C=C/C=C2N(CCCCCC(=O)NCCOCCn3cc(CNC(=O)CCCCS(=O)(=O)Nc4ccc(C5CN(C)CCc6cc(Cl)c(O)cc65)cc4)nn3)c3ccc(S(=O)(=O)[O-])cc3C2(C)CCCS(=O)(=O)O)C(C)(CCCS(=O)(=O)O)c2cc(S(=O)(=O)O)ccc21 (stereo not shown) [compound 26, 2-((E)-3-((E)-1-(6-((2-(2-(4-((5-(N-(4-(7-Chloro-8-hydroxy-3-methyl-2,3,4,5-tetrahydro-1H-benzo[d]azepin-1-yl)phenyl)sulfamoyl)pentanamido)methyl)-1H-1,2,3-triazol-1-yl)ethoxy)ethyl)amino)-6-oxohexyl)-3-methyl-5-sulfonato-3-(3-sulfonatopropyl)indolin-2-ylidene)prop-1-en-1-yl)-1-(2-methoxyethyl)-3-methyl-3-(3-sulfonatopropyl)-3H-indol-1-ium-5-sulfonate]
– | 6.85 ± 0.07 | – | COCC[N+]1=C(/C=C/C=C2N(CCCCCC(=O)NCCOCCOCCn3cc(CNC(=O)CCCCS(=O)(=O)Nc4ccc(C5CN(C)CCc6cc(Cl)c(O)cc65)cc4)nn3)c3ccc(S(=O)(=O)[O-])cc3C2(C)CCCS(=O)(=O)O)C(C)(CCCS(=O)(=O)O)c2cc(S(=O)(=O)O)ccc21 (stereo not shown) [compound 28, 2-((E)-3-((E)-1-(6-((2-(2-(2-(4-((5-(N-(4-(7-Chloro-8-hydroxy-3-methyl-2,3,4,5-tetrahydro-1H-benzo[d]azepin-1-yl)phenyl)sulfamoyl)pentanamido)methyl)-1H-1,2,3-triazol-1-yl)ethoxy)ethoxy)ethyl)amino)-6-oxohexyl)-3-methyl-5-sulfonato-3-(3-sulfonatopropyl)indolin-2-ylidene)prop-1-en-1-yl)-1-(2-methoxyethyl)-3-methyl-3-(3-sulfonatopropyl)-3H-indol-1-ium-5-sulfonate]
10.2 | – | – | COCC[N+]1=C(/C=C/C=C2N(CCCCCC(=O)NCCCS(=O)(=O)Nc3ccc(C4CN(C)CCc5cc(Cl)c(O)cc54)cc3)c3ccc(S(=O)(=O)[O-])cc3C2(C)CCCS(=O)(=O)O)C(C)(CCCS(=O)(=O)O)c2cc(S(=O)(=O)O)ccc21 (stereo not shown) [compound 24, (E)-1-(6-((3-(N-(4-(7-Chloro-8-hydroxy-3-methyl-2,3,4,5-tetrahydro-1H-benzo[d]azepin-1-yl)phenyl)sulfamoyl)propyl)amino)-6-oxohexyl)-2-((E)-3-(1-(2-methoxyethyl)-3-methyl-5-sulfo-3-(3-sulfopropyl)-3H-indol-1-ium-2-yl)allylidene)-3-methyl-3-(3-sulfopropyl)indoline-5-sulfonate]
4.57 | – | 51.3 | CN1CCc2cc(Cl)c(O)cc2C(c2ccc(NS(=O)(=O)CCCCC(=O)NCc3cn(CCOCCNC(=O)c4ccc(-c5c6ccc(N(C)C)cc6[o+]c6cc(N(C)C)ccc56)c(C(=O)[O-])c4)nn3)cc2)C1 (racemic) [compound 25, 2-(3,6-Bis(dimethylamino)xanthylium-9-yl)-5-((2-(2-(4-((5-(N-(4-(7-chloro-8-hydroxy-3-methyl-2,3,4,5-tetrahydro-1H-benzo[d]azepin-1-yl)phenyl)sulfamoyl)pentanamido)methyl)-1H-1,2,3-triazol-1-yl)ethoxy)ethyl)carbamoyl)benzoate]
